Publication PMC12484987 (Scientific Reports, 2025)
Each block holds one compound with its values, some of them ahead of it.

Legend:
[1] = system: T47-D (Hormone-dependent breast cancer); settings: for Percentage cytotoxicity: T47-D, at maximum tested concentration of 50 µg/mL
A549 (Lung carcinoma) [2] = settings: for Percentage cytotoxicity: A549, at maximum tested concentration of 50 µg/mL
[3] = system: HuCCA-1 (Cholangiocarcinoma); test: cells; settings: Homo sapiens, HuCC-A1, 48 h, read-out: IC50 cytotoxic activity
[4] = system: MDA-MB-231 (Hormone-independent breast cancer); settings: for Percentage cytotoxicity: MDA-MB-231, at maximum tested concentration of 50 µg/mL
[5] = system: HuCCA-1 (Cholangiocarcinoma); settings: for Percentage cytotoxicity: HuCCA-1, at maximum tested concentration of 50 µg/mL
HL-60 (promyeloblast) [6] = settings: for Percentage cytotoxicity: HL-60, at maximum tested concentration of 50 µg/mL
in vitro = settings: human, MRC-5 cells (normal embryonic lung cells)
[7] = system: MOLT-3 (Acute lymphoblastic leukemia); test: cells; settings: Homo sapiens, MOLT-3, 48 h, read-out: IC50 cytotoxic activity
[8] = system: H69AR (Lung cancer, multidrug resistance); test: cells; settings: Homo sapiens, 48 h, read-out: IC50 cytotoxic activity
[9] = system: MRC-5 (normal embryonic lung cell); settings: for Percentage cytotoxicity: MRC-5, at maximum tested concentration of 50 µg/mL
HepG2 (Hepatocarcinoma) [10] = test: cells; settings: Homo sapiens, HepG2, 48 h, read-out: IC50 cytotoxic activity
[11] = system: MOLT-3 (Acute lymphoblastic leukemia); settings: for Percentage cytotoxicity: MOLT-3, at maximum tested concentration of 50 µg/mL
HL-60 (promyeloblast) [12] = test: cells; settings: Homo sapiens, HL-60, 48 h, read-out: IC50 cytotoxic activity
[13] = system: T47-D (Hormone-dependent breast cancer); test: cells; settings: Homo sapiens, T47D, 48 h, read-out: IC50 cytotoxic activity
[14] = system: HeLa (Cervical carcinoma); test: cells; settings: Homo sapiens, 48 h, read-out: IC50 cytotoxic activity
HepG2 (Hepatocarcinoma) [15] = settings: for Percentage cytotoxicity: HepG2, at maximum tested concentration of 50 µg/mL
[16] = system: HeLa (Cervical carcinoma); settings: for Percentage cytotoxicity: HeLa, at maximum tested concentration of 50 µg/mL
S102 (Thai liver cancer) [17] = settings: for Percentage cytotoxicity: S102, at maximum tested concentration of 50 µg/mL
S102 (Thai liver cancer) [18] = test: cells; settings: Homo sapiens, 48 h, read-out: IC50 cytotoxic activity
[19] = system: MDA-MB-231 (Hormone-independent breast cancer); test: cells; settings: Homo sapiens, MDA-MB-231, 48 h, read-out: IC50 cytotoxic activity
[20] = system: H69AR (Lung cancer, multidrug resistance); settings: for Percentage cytotoxicity: H69AR, at maximum tested concentration of 50 µg/mL
A549 (Lung carcinoma) [21] = test: cells; settings: Homo sapiens, A549, 48 h, read-out: IC50 cytotoxic activity
HIV-1 RT = HIV-1 RT (Human immunodeficiency virus type 1 group M subtype B, UniProt P04585); test: HIV-1 RT inhibition assay; format: biochemical

SMILES: Cc1cc(C#N)cc(C)c1Oc1cc(Oc2c(C)cc(C#N)cc2C)c2ccncc2n1 [Compound 14b, 2,4-di-(2ˊ,6ˊ-dimethyl-4ˊ-cyanophenoxy)−1,7-naphthyridine]
- Percentage cytotoxicity [1]: 0%
- Percentage cytotoxicity (A549 (Lung carcinoma) [2]): 8%
- IC50 [3]: > 119 µM
- Percentage cytotoxicity [4]: 22%
- Percentage cytotoxicity [5]: 0%
- Percentage cytotoxicity (HL-60 (promyeloblast) [6]): 24%
- IC50 at 48 h (in vitro): > 119 µM
- IC50 [7]: > 119 µM
- IC50 [8]: > 119 µM
- Percentage cytotoxicity [9]: 0%
- toxicity toward normal embryonic lung cells (MRC-5), in words ([9]; MRC-5, up to 50 µg/mL): non-toxic
- IC50 (HepG2 (Hepatocarcinoma) [10]): > 119 µM
- Percentage cytotoxicity [11]: 16%
- IC50 (HL-60 (promyeloblast) [12]): > 119 µM
- IC50 [13]: > 119 µM
- IC50 [14]: > 119 µM
- Percentage cytotoxicity (HepG2 (Hepatocarcinoma) [15]): 34%
- Percentage cytotoxicity [16]: 24%
- Percentage cytotoxicity (S102 (Thai liver cancer) [17]): 6%
- IC50 (S102 (Thai liver cancer) [18]): > 119 µM
- IC50 [19]: > 119 µM
- Percentage cytotoxicity [20]: 0%
- IC50 (A549 (Lung carcinoma) [21]): > 119 µM

SMILES: O=C1Nc2ccc(Cl)cc2[C@@](C#CC2CC2)(C(F)(F)F)O1 [EFV, efavirenz, reference compound]
- IC50 at 48 h (in vitro): 95.6 ± 6 µM

SMILES: Cc1ccnc2c1NC(=O)c1cccnc1N2C1CC1 [NVP, nevirapine, reference compound]
- Percentage cytotoxicity [1]: 14%
- Percentage cytotoxicity (A549 (Lung carcinoma) [2]): 18%
- IC50 [3]: > 188 µM
- Percentage cytotoxicity [4]: 9%
- Percentage cytotoxicity [5]: 11%
- Percentage cytotoxicity (HL-60 (promyeloblast) [6]): 3%
- IC50 at 48 h (in vitro): > 188 µM
- IC50 [7]: > 188 µM
- IC50 [8]: > 188 µM
- Percentage cytotoxicity [9]: 1%
- IC50 (HepG2 (Hepatocarcinoma) [10]): > 188 µM
- Percentage cytotoxicity [11]: 29%
- IC50 (HL-60 (promyeloblast) [12]): > 188 µM
- IC50 [13]: > 188 µM
- IC50 [14]: > 188 µM
- Percentage cytotoxicity (HepG2 (Hepatocarcinoma) [15]): 15%
- Percentage cytotoxicity [16]: 34%
- Percentage cytotoxicity (S102 (Thai liver cancer) [17]): 3%
- IC50 (S102 (Thai liver cancer) [18]): > 188 µM
- IC50 [19]: > 188 µM
- Percentage cytotoxicity [20]: 8%
- IC50 (A549 (Lung carcinoma) [21]): > 188 µM

SMILES: COc1cc([C@@H]2c3cc4c(cc3[C@@H](O[C@@H]3O[C@@H]5CO[C@@H](C)O[C@H]5[C@H](O)[C@H]3O)[C@H]3COC(=O)[C@H]23)OCO4)cc(OC)c1O [etoposide, reference compound]
- IC50 [7]: 0.03 ± 0.02 µM
- IC50 (HL-60 (promyeloblast) [12]): 0.8 ± 0.1 µM

More lines, main results first:

- IC50 (HIV-1 RT): 0.063 µM
- inhibition at 1 µM (HIV-1 RT; read-out: Inhibitory activity (%) against HIV-1 RT): 97.1%
- IC50 at 48 h (in vitro): > 137 µM
SMILES: Cc1cc(/C=C/C#N)cc(C)c1Nc1ccnc(Nc2ccc(C#N)cc2)n1 [RPV, rilpivirine, reference compound]
- Percentage cytotoxicity (A549 (Lung carcinoma) [2]): 42%
- IC50 [7]: 4.3 ± 0.5 µM
- Percentage cytotoxicity [9]: 14%
- IC50 (A549 (Lung carcinoma) [21]): > 137 µM

- IC50 at 48 h (in vitro): 3.1 ± 0.5 µM
SMILES: COc1cccc2c1C(=O)c1c(O)c3c(c(O)c1C2=O)C[C@@](O)(C(=O)CO)C[C@@H]3O[C@H]1C[C@H](N)[C@H](O)[C@H](C)O1 [doxorubicin, reference compound]
- Selectivity index SI = IC50(normal cell)/IC50(cancer cell line) ([1]; MRC-5 vs T47-D): 2.58
- Selectivity index SI = IC50(normal cell)/IC50(cancer cell line) (A549 (Lung carcinoma) [2]; MRC-5 vs A549): 5.17
- IC50 [3]: 0.9 ± 0.1 µM
- Selectivity index SI = IC50(normal cell)/IC50(cancer cell line) ([4]; MRC-5 vs MDA-MB-231): 1.24
- Selectivity index SI = IC50(normal cell)/IC50(cancer cell line) ([5]; MRC-5 vs HuCCA-1): 3.44
- Selectivity index SI = IC50(normal cell)/IC50(cancer cell line) (HL-60 (promyeloblast) [6]; MRC-5 vs HL-60): 31
- IC50 [7]: 0.02 µM
- IC50 (HepG2 (Hepatocarcinoma) [10]): 0.6 ± 0.02 µM
- Selectivity index SI = IC50(normal cell)/IC50(cancer cell line) ([11]; MRC-5 vs MOLT-3): 155
- IC50 (HL-60 (promyeloblast) [12]): 0.1 µM
- IC50 [13]: 1.2 µM
- IC50 [14]: 0.4 µM
- Selectivity index SI = IC50(normal cell)/IC50(cancer cell line) (HepG2 (Hepatocarcinoma) [15]; MRC-5 vs HepG2): 5.17
- Selectivity index SI = IC50(normal cell)/IC50(cancer cell line) ([16]; MRC-5 vs HeLa): 7.75
- Selectivity index SI = IC50(normal cell)/IC50(cancer cell line) (S102 (Thai liver cancer) [17]; MRC-5 vs S102): 1.41
- IC50 (S102 (Thai liver cancer) [18]): 2.2 µM
- IC50 [19]: 2.5 ± 0.1 µM
- Selectivity index SI = IC50(normal cell)/IC50(cancer cell line) ([20]; MRC-5 vs H69AR): 0.09
- IC50 (A549 (Lung carcinoma) [21]): 0.6 ± 0.1 µM
